“And” between values parts separate entries of the source, which are not always exact repeats. Equal values may be shown once.
Key:
Type in all cases: in vivo
[1] = system: protein concentration in the aqueous humor; assay: Protein measurement in aqueous humor, rabbit paracentesis model; conditions: second paracentesis; for Protein level in aqueous humor, Mean: group mean; for Protein level in aqueous humor: individual eye
Description: (§1) Each rabbit was placed in a restraint device and tagged with the alphanumeric code. The formulations were instilled (50 μl) into the conjunctival sac of both eyes 180, 120, 90 and 30 min before the first paracentesis; then 15, 30, 90 min after the first paracentesis. To perform the first paracentesis the animals were anaesthetized by intravenous injection of 5 mg/kg Zoletil® (Virbac; 2.5 mg/kg tiletamine HCl and 2.5 mg/kg zolazepam HCl) and one drop of local anesthetic (Novesina®, Novartis) was administered to the eye. Anterior chamber paracentesis was performed with a 26 G needle attached to a tuberculin syringe; the needle was introduced into the anterior chamber through the cornea, taking care not to damage the tissues. Two hours after the first paracentesis, the animals were sacrificed with 0.4 ml Tanax® (Intervet International B.V.) and the second paracentesis was performed. About 100 μl of aqueous humor were removed at the second paracentesis. Aqueous humor was immediately split in four aliquots and stored at −80° C. until analysis. Then both eyes were enucleated and the iris-ciliary body was carefully excised, placed in polypropylene tubes, and stored at −80° C. until analysis.
For protein concentration determination in the aqueous humor we used the Protein Quantification Kit (Fluka; Cat. No. 77371; Lot. No. 1303129). Five microliters of aqueous humor were diluted to 100 μl with water. Twenty microliters of samples and of standards were load into a 96-well plate and recorded in a plate layout. Samples were treated following the assay procedure described in the kit. A microplate reader (GDV, Italy; model DV 990 B/V6) set at 670 nm was used for making the calibration and analyzing the samples.

[2] = system: leukocytes (PMN) in aqueous humor; assay: Leukocytes (PMN) measurement in aqueous humor, rabbit paracentesis model; conditions: second paracentesis; for PMN numbers in aqueous humor: individual eye
Description: as §1
For the determination of the number of leukocytes we used a haemocytometer (Improved Neubauer Chamber; Bright-line, Hausser Scientific) and a Polyvar 2 microscope (Reichert-Jung).

[3] = system: rabbit paracentesis model; assay: Clinical evaluation (slit lamp clinical score), rabbit paracentesis model; parameters: key to Clinical Score −180 min / Clinical Score −5 min / Clinical Score +115 min: 0: normal; 1: discrete dilatation of iris and conjunctival vessels; 2: moderate dilatation of iris and conjunctival vessels; 3: intense iridal hyperemia with flare in the anterior chamber; 4: intense iridal hyperemia with flare in the anterior chamber and presence of fibrinous exudates; conditions: for Clinical Score −5 min: 5 min before first paracentesis; for Clinical Score −5 min / Clinical Score +115 min / Clinical Score −180 min: individual eye; for Clinical Score +115 min: 5 min before second paracentesis; for Clinical Score −180 min: basal
[4] = system: MPO activity in iris-ciliary body; assay: Myeloperoxidase (MPO) activity in iris-ciliary body, rabbit paracentesis model; conditions: for MPO Unit/g: iris-ciliary body samples collected after the second paracentesis, individual eye samples; for MPO activity in iris-ciliary body, Mean: after second paracentesis, group mean
Description: as §1
The activity of MPO was measured as previously described by Williams et al.[5] The iris-ciliary bodies were carefully dried, weighed and immersed in 1 ml of hexa-decyl-trimethyl-ammonium bromide solution. Then, the samples were sonicated for 10 sec on ice by a ultrasound homogenizer (HD 2070, Bandelin electronic), freeze-thawed three times, sonicated for 10 sec and centrifuged at 14,000 g for 10 min to remove cellular debris. An aliquot of the supernatant ([…] was diluted to 3 ml with the o-dianisidine 2HCl/H2O2 solution. The change in absorbance at 460 nm was continuously monitored for 5 min by a spectrophotometer (UV/Vis Spectrometer Lambda EZ 201; Perkin Elmer). The slope of the line (Δ/min) was determined for each sample and used to calculate the number of units of MPO in the tissue as follows:
were ε=11.3 mM^−1. Values were expressed as units of MPO/g of tissue.

[5] = system: PGE2 in the aqueous humor; assay: Prostaglandin E2 (PGE2) measurement in aqueous humor, rabbit paracentesis model; conditions: second paracentesis; for PGE2 level in aqueous humor, Mean: group mean; for PGE2 level in aqueous humor: individual eye
Description: as §1
For the quantitative determination of PGE2 in the aqueous humor we used the PGE2 Immunoassay kit (R&D Systems; Cat. No. KGE004; Lot. No. 240010). Eleven microliters or 16 μl of aqueous humor were diluted to 110 μl or 160 μl with the calibrator diluent solution provided with the kit. One hundred microliters of samples and of standards were load into a 96-well plate and recorded in a plate layout. Samples were treated following the assay procedure described in the kit. A microplate reader (GDV, Italy; model DV 990 B/V6) set at 450 nm (wavelength correction at 540 nm) was used for making the calibration and analyzing the samples.

[6] = system: rabbit paracentesis model; assay: Pupillary diameter measurement, rabbit paracentesis model; conditions: individual eye; for Pupillary diameter T1: −180 min: 50 μl drops, basal; for Pupillary diameter T2: −5 min: 5 min before first paracentesis; for Pupillary diameter T3: +115 min: 5 min before second paracentesis; for Pupillary diameter Δ(T3 − T1): +115 min minus −180 min
Description: as §1
The pupillary diameter of both eyes was measured with a Castroviejo caliper 180 min and 5 min before the first paracentesis and 5 min before the second paracentesis.

[7] = 0.5% topical formulation, +115 min

Structure (SMILES): CC(C(=O)O)c1ccc(-c2ccccc2)c(F)c1 (centres unmarked) [F, flurbiprofen, reference compound]
- Protein level in aqueous humor, Mean ([1]; 0.03% topical formulation): 20.910 mg/mL
- Protein level in aqueous humor ([1]; 0.03% topical formulation): 20.78 mg/mL and 28.80 mg/mL and 23.41 mg/mL and 20.21 mg/mL and 17.53 mg/mL and 15.12 mg/mL and 20.52 mg/mL
- PMN numbers in aqueous humor ([2]; 0.03% topical formulation): 50 number/μl and 40 number/μl (2×) and 20 number/μl (2×) and 10 number/μl and 30 number/μl
- Clinical Score −5 min ([3]; 0.03% topical formulation): 0
- Clinical Score +115 min ([3]; 0.03% topical formulation): 2
- Percentage of eyes with clinical score 2 ([3]; 0.03% topical formulation, +115 min): 100%
- Clinical Score −180 min ([3]; 0.03% topical formulation): 0
- Percentage of eyes with clinical score 0 ([3]; 0.03% topical formulation, −5 min): 100%
- Percentage of eyes with clinical score 0 ([3]; 0.03% topical formulation, −180 min (basal)): 100%
- MPO Unit/g ([4]; 0.03% F): 1.10 Unit/g and 1.70 Unit/g and 0.34 Unit/g and 0.75 Unit/g and 0.74 Unit/g and 0.63 Unit/g and 0.73 Unit/g and 1.27 Unit/g
- MPO, p vs CTR ([4]; 0.03% topical formulation): < 0.01
- MPO activity in iris-ciliary body, Mean ([4]; 0.03% topical formulation): 0.906 MPO Unit/g
- PGE2 level in aqueous humor, Mean ([5]; 0.03% topical formulation): 1.189 ng/mL
- PGE2 level in aqueous humor ([5]; 0.03% topical formulation): 1.04 ng/ml and 0.75 ng/ml and 0.85 ng/ml and 1.11 ng/ml and 2.11 ng/ml (2×) and 0.93 ng/ml and 0.61 ng/ml
- Pupillary diameter T1: −180 min ([6]; 0.03% topical formulation): 5.0 mm (2×) and 7.0 mm and 6.0 mm (4×) and 5.5 mm
- Pupillary diameter T2: −5 min ([6]; 0.03% topical formulation): 6.0 mm (3×) and 6.5 mm (3×) and 7.0 mm and 5.5 mm
- Pupillary diameter T3: +115 min ([6]; 0.03% topical formulation): 4.0 mm and 3.5 mm and 5.5 mm (2×) and 5.0 mm (2×) and 4.5 mm and 6.0 mm
- Pupillary diameter Δ(T3 − T1) ([6]; 0.03% topical formulation): −1.0 mm (3×) and −1.5 mm (3×) and 0.0 mm (2×)

Structure (SMILES): CCOC(=O)O[C@]1(C(=O)OCCl)CC[C@H]2[C@@H]3CCC4=CC(=O)C=C[C@]4(C)[C@H]3[C@@H](O)C[C@@]21C [LE, loteprednol etabonate, reference compound]
- Protein level in aqueous humor, Mean ([1]; 0.5% topical formulation): 33.905 mg/mL
- Protein level in aqueous humor ([1]; 0.5% topical formulation): 36.14 mg/mL and 39.10 mg/mL and 34.69 mg/mL and 26.10 mg/mL and 26.30 mg/mL and 28.16 mg/mL and 40.90 mg/mL and 39.85 mg/mL
- PMN numbers in aqueous humor, Mean ([2]; 0.5% topical formulation, group mean): 28.333 number/μl
- PMN numbers in aqueous humor ([2]; 0.5% topical formulation): 40 number/μl (2×) and 20 number/μl (3×) and 30 number/μl
- Clinical Score −5 min ([3]; 0.5% topical formulation): 0
- Clinical Score +115 min ([3]; 0.5% topical formulation): 2 (2×) and 1 (6×)
- Percentage of eyes with clinical score 1 [3, 7]: 75%
- Percentage of eyes with clinical score 2 [3, 7]: 25%
- Clinical score, p versus CTR ([3]; 0.5% topical formulation, Kruskal-Wallis, Dunn): < 0.05
- Clinical Score −180 min ([3]; 0.5% topical formulation): 0
- Percentage of eyes with clinical score 0 ([3]; 0.5% topical formulation, −5 min): 100%
- Percentage of eyes with clinical score 0 ([3]; 0.5% topical formulation, −180 min (basal)): 100%
- MPO Unit/g ([4]; 0.5% LE): 0.30 Unit/g and 0.51 Unit/g and 0.81 Unit/g and 0.60 Unit/g and 0.73 Unit/g and 1.01 Unit/g
- MPO activity in iris-ciliary body, Mean ([4]; 0.5% topical formulation): 0.661 MPO Unit/g
- PGE2 level in aqueous humor, Mean ([5]; 0.5% topical formulation): 0.672 ng/mL
- PGE2 level in aqueous humor ([5]; 0.5% topical formulation): ^2N/D and 0.23 ng/ml and 0.68 ng/ml and 1.10 ng/ml
- Pupillary diameter T1: −180 min ([6]; 0.5% topical formulation): 6.0 mm (3×) and 6.5 mm (5×)
- Pupillary diameter T2: −5 min ([6]; 0.5% topical formulation): 6.0 mm (3×) and 6.5 mm (5×)
- Pupillary diameter T3: +115 min ([6]; 0.5% topical formulation): 4.5 mm and 5.0 mm (2×) and 5.5 mm (2×) and 6.0 mm (3×)
- Pupillary diameter Δ(T3 − T1) ([6]; 0.5% topical formulation): −1.5 mm (2×) and −1.0 mm (3×) and 0.0 mm and −0.5 mm (2×)

Source: patent US20110077270A1, “Compositions and Methods for Treating Ocular Inflammation with Lower Risk of Increased Intraocular Pressure” (priority 2009, published 2011)
